Read-outs that look alike come from different tables or passages of the source.
Tests used:
TYK2 (JH2 domain) = TYK2 (JH2 domain) (Homo sapiens (Human), UniProt P29597); test: TYK2 JH2 domain binding assay (DiscoverX KINOMEscan); details: 11-point 3-fold dilution, duplicate
[1] = tested on: IL12-induced p-STAT4 in human PBMC; test: IL-12 induced pSTAT4 in human PBMC; type: cell-based; details: read-out: p-STAT4 IC50
[2] = tested on: INFα induced pSTAT5 in human PBMC; test: INFα induced pSTAT5 in human PBMC; type: cell-based; details: human PBMC, INFα 5000 units/ml; read-out: p-STAT5 IC50

Chain of TYK2 (JH2 domain) (P29597 589-875): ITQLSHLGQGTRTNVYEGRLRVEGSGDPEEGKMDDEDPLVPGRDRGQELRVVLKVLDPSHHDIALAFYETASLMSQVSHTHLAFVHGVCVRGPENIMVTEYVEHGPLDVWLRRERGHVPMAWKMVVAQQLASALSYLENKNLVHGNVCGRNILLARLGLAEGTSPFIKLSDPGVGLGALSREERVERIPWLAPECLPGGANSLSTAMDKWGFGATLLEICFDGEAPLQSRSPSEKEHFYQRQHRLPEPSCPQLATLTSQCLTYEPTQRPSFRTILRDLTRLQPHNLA

Kd (TYK2 (JH2 domain))	Structure (SMILES)	IC50 ([1]; human PBMC, IL-12 10 ng/ml)	IC50 [2]	IC50 ([1]; Homo sapiens, PBMC)
≤ 0.001 µM	[2H]C([2H])([2H])NC(=O)c1nnc(N2CCN(C3(C#N)CC3)C2=O)cc1Nc1cccc(-c2ncn(C)n2)c1OC [Example 95]	< 0.1 µM		
≤ 0.001 µM	[2H]C([2H])([2H])NC(=O)c1nnc(N2CCN(CCCC)C2=O)cc1Nc1cccc(-c2ncn(C)n2)c1OC [Example 91]	< 0.1 µM		
≤ 0.001 µM	[2H]C([2H])([2H])NC(=O)c1nnc(N2CCN(C3CC(C)C3)C2=O)cc1Nc1cccc(-c2ncn(C)n2)c1OC (centres unmarked) [Example 100]	< 0.1 µM		
≤ 0.001 µM	[2H]C([2H])([2H])NC(=O)c1nnc(N2CCN(CC3CCC3)C2=O)cc1Nc1cccc(-c2ncn(C)n2)c1OC [Example 96]	< 0.1 µM		
≤ 0.001 µM	COc1c(Nc2cc(Nc3cc(F)ccn3)ncc2C(=O)C2CC2)cccc1-c1ncn(C)n1 [Example 108]		< 0.1 µM	
≤ 0.001 µM	[2H]C([2H])([2H])NC(=O)c1nnc(N2CCN(C3CCC3)C2=O)cc1Nc1cccc(-c2ncn(C)n2)c1OC([2H])([2H])[2H] [Example 20, 6-(3-cyclobutyl-2-oxo-imidazolidin-1-yl)-4-[3-(1-methyl-1,2,4-triazol-3-yl)-2-(trideuteriomethoxy)anilino]-N-(trideuteriomethyl)pyridazine-3-carboxamide]	< 0.1 µM		
≤ 0.001 µM	[2H]C([2H])([2H])NC(=O)c1nnc(N2CCN(CCC)C2=O)cc1Nc1cccc(-c2ncn(C)n2)c1OC [Example 99]	< 0.1 µM		
≤ 0.001 µM	COc1c(Nc2cc(Nc3ccncn3)ncc2C(=O)C2CC2)cccc1-c1ncn(C)n1 [Example 52]	< 0.1 µM		
≤ 0.001 µM	CC(C)(O)c1ccc(Nc2cc(Nc3ncccc3S(C)(=O)=O)c(C(=O)C3CC3)cn2)nc1 [Example 126]		< 0.1 µM	
≤ 0.001 µM	[2H]C([2H])([2H])NC(=O)c1nnc(N2CCN(CC(C)C)C2=O)cc1Nc1cccc(-c2ncn(C)n2)c1OC [Example 17, 6-(3-isobutyl-2-oxo-imidazolidin-1-yl)-4-[2-methoxy-3-(1-methyl-1,2,4-triazol-3-yl)anilino]-N-(trideuteriomethyl)pyridazine-3-carboxamide]	< 0.1 µM		
	COc1c(Nc2cc(Nc3ccc(C(C)(C)O)cn3)ncc2C(=O)C2CC2)cccc1-c1ncn(C)n1 [Example 122]		< 0.1 µM	
	CCC(=O)c1cnc(Nc2cc(C)n(C)n2)cc1Nc1ncccc1S(C)(=O)=O [Example 179]		< 0.1 µM	
	[2H]C([2H])([2H])NC(=O)c1nnc(NC(=O)N2CC(OC)C2)cc1Nc1cccc(-c2ncn(C)n2)c1OC [Example 158]		< 0.1 µM	
≤ 0.001 µM	COc1c(Nc2cc(Nc3cc(C)c(F)cn3)ncc2C(=O)C2CC2)cccc1-c1ncn(C)n1 [Example 145]		< 0.1 µM	
≤ 0.001 µM	[2H]C([2H])([2H])NC(=O)c1cnc(N2CCN(C(C)C)C2=O)cc1Nc1cccc(-c2ncn(C)n2)c1OC [Example 48]	< 0.1 µM		
	COc1c(Nc2cc(Nc3ccc(C)nn3)ncc2C(=O)C2CC2)cccc1-c1ncn(C)n1 [Example 113]		< 0.1 µM	
≤ 0.001 µM	[2H]C([2H])([2H])NC(=O)c1nnc(N2CCN(C3C[C@@H]3F)C2=O)cc1Nc1cccc(-c2ncn(C)n2)c1OC (some centres unmarked) [Example 78]	< 0.1 µM		
	CS(=O)(=O)c1cccnc1Nc1cc(Nc2ccccn2)ncc1C(=O)C1CC1 [Example 137]		< 0.1 µM	
	[2H]C1([2H])CN(C(=O)Nc2cc(Nc3cccc(-c4ncn(C)n4)c3OC)c(C(=O)NC([2H])([2H])[2H])nn2)C1 [Example 31]	< 0.1 µM		
	COc1c(Nc2cc(Nc3ncc[nH]3)ncc2C(=O)C2CC2)cccc1-c1ncn(C)n1 [Example 173]		0.1 to 1 µM	
	COc1c(Nc2cc(Nc3ccc(C#N)cn3)ncc2C(=O)C2CC2)cccc1-c1ncn(C)n1 [Example 139]		< 0.1 µM	
	CCC(=O)c1cnc(Nc2cccc(C#N)n2)cc1Nc1cccc(-c2ncn(C)n2)c1OC [Example 177]		< 0.1 µM	
	COc1c(Nc2cc(Nc3ncccc3F)ncc2C(=O)C2CC2)cccc1-c1ncn(C)n1 [Example 119]		< 0.1 µM	
	[2H]C([2H])([2H])NC(=O)c1nnc(NC(=O)N2CC3(CC3)C2)cc1Nc1cccc(-c2ncn(C)n2)c1OC [Example 150]		< 0.1 µM	

Structure (SMILES)	Kd (TYK2 (JH2 domain))	IC50 ([1]; human PBMC, IL-12 10 ng/ml)	IC50 [2]	IC50 ([1]; Homo sapiens, PBMC)
CNC(=O)c1nnc(NC(=O)N2CCC2)cc1Nc1cccc(-c2ncn(C)n2)c1OC [Example 30]	≤ 0.001 µM	< 0.1 µM		
[2H]C([2H])([2H])NC(=O)c1nnc(NC(=O)N2CCC2)cc1Nc1cccc(-c2ncn(C)n2)c1OC [Example 28]	≤ 0.001 µM		< 0.1 µM	
[2H]C([2H])([2H])NC(=O)c1nnc(NC(=O)N2CCCC2)cc1Nc1cccc(-c2ncn(C)n2)c1OC [Example 29]	≤ 0.001 µM			< 0.1 µM
[2H]C([2H])([2H])NC(=O)c1nnc(N2CCN(C(C([2H])([2H])[2H])C([2H])([2H])[2H])C2=O)cc1Nc1cccc(-c2ncn(C([2H])([2H])[2H])n2)c1OC [Example 21, 6-(3-isopropyl-2-oxo-imidazolidin-1-yl)-4-[2-methoxy-3-(1-methyl-1,2,4-triazol-3-yl)anilino]-N-(trideuteriomethyl)pyridazine-3-carboxamide]	≤ 0.001 µM	< 0.1 µM		
COc1c(Nc2cc(NC(=O)C(C)C)ncc2C(=O)C2CC2)cccc1-c1ncn(C)n1 [Example 36]	≤ 0.001 µM	< 0.1 µM		

Source: patent US11053219B2, “Substituted pyridines as TYK2 inhibitors” (FronThera U.S. Pharmaceuticals LLC, priority 2018, dated 2021)
